# Like-named read-outs stand apart in the source and are kept apart here.
# Tests used:
# [1] = Gastrointestinal fluid stability (SGF, SIF, PBS); assay type: physicochemical; conditions: 37 °C, 1 µg/mL
# Experimental: The gastric stability of MO-OH-Nap was determined at different physiological pH conditions using simulated gastric/intestinal fluid (SGF/SIF) or PBS (pH7.4) prepared with USP specifications. Briefly, simulated gastric fluid (SGF), pH 1.2, was prepared by dissolving […] of sodium chloride (NaCl) and 3.2 g of pepsin in 7 mL hydrochloric acid (HCl) and a sufficient amount of water to make 1000 mL. The simulated intestinal fluid (SIF), pH 6.8, was prepared by dissolving 6.805 g of monobasic potassium phosphate in 250 mL of water. Then 77 mL of 0.2 N sodium hydroxide (NaOH) was mixed with 500 mL water and 10 g of pancreatin, then made up to 1000 mL. The SIF solution is adjusted to pH 6.8 ± 0.1 with either 0.2 N NaOH or 0.2 N HCl. MO-OH-Nap at 1 µg/mL concentration was incubated with SGF, SIF and PBS (100 mM pH 7.4) at 37 °C on a shaking water bath, n = 3. Samples (100 µL) were collected at 0, 15, 30, 60, and 120 min. Immediately after sample collection, 300 µL ACN was added as a quenching solvent to stop chemical degradation. IS solution (10 µL from 1 µg/mL stock) was added to each sample, vortexed the centrifuged at 14,000 rpm (22,000× g) and 4 °C, and then transferred to HPLC vial for LC-MS/MS analysis. Stability was determined through the percentage of the parent drug remaining at different time points relative to the parent drug at 0 min (100% parent).
# [2] = In vitro metabolic stability in rat liver microsomes; assay type: in vitro ADME; conditions: RLM
# Experimental: (§1) Metabolic stability was assessed using mouse, rat, and human liver microsomes (XenoTech, LLC, Lenexa, KS, USA) for phase I metabolism. Briefly, A reaction solution was prepared by mixing […] of PBS (100 mM, pH 7.4), 25 µL of microsomal protein (20 mg/mL), MgCl2 (5 µL; 10 mM), and 50 µL of NADPH (2 mM). The final volume (0.5 mL) was pre-incubated for 10 min in a 37 °C water bath at 60 rpm. An aliquot of MO-OH-Nap (2 µL from 1 µg/mL stock) was spiked into the above solution to initiate the reaction. Aliquots of (50 µL) were collected at time intervals (0, 5, 15, 20, 30, 45, and 60 min) and quenched with 300 µL of ACN, […]. Afterwards, 10 µL of IS stock (1.0 µg/mL) was spiked in each sample then vortexed (5 min) and centrifuged at 10,800 rpm (13,000× g) for 15 min. Samples were vortexed and centrifuged at 10,800 rpm (13,000× g) for 15 min, the supernatant was collected and transferred to an HPLC vial and 10 µL were injected into the LC-MS/MS system. Testosterone and diclofenac were used as positive and negative controls to ensure that liver microsomes and incubation conditions were appropriate for conducting metabolism studies.
# [3] = In vitro metabolic stability in human liver microsomes; assay type: in vitro ADME; conditions: HLM
# Experimental: as §1
# [4] = Plasma pharmacokinetics after single IP dose in CD-1 mice; assay type: in vivo, mouse; conditions: for Cmax / Vd/F / AUC: 5 mg/kg
# Experimental: Female CD-1 mice,6–8-week-old, with weights ranging from 20 to 25 g were housed in the UNMC animal facility, at a temperature of 23–24 °C, relative humidity of 40–70%, and 12/12-h light/dark cycles. Mice were left to acclimatize to laboratory conditions for 7 days prior to experimental day. MO-OH-Nap was dissolved in a 5% DMSO, 45% w/v hydroxypropyl-β-cyclodextrin solution in PBS (final concentration 0.625 mg/mL MO-OH-Nap). MO-OH-Nap (5 mg/kg) was administered IP. After dosing, approximately 100 µL of blood was collected in Lithium-Heparin-Microvette 300 µL Capillary Blood Collection Tube (SARSTEDT AG& Co., Nümbrecht, Germany) from the maxillary vein at 5, 15, 30 min and 1, 2, 4, 6, 8, 24, and 48 h. Two blood time points were collected from every mouse and the third time point was the terminal time point, for a total of three time points from each mouse (5 mice/group/per time point). Blood was centrifuged at 4000× g at 4 °C for 10 min to extract plasma. The collected plasma samples were stored at −80 °C until analysis. The pharmacokinetics of MO-OH-Nap were determined using non-compartmental (NCA) pharmacokinetics analysis, utilizing Phoenix® WinNonlin software version 8.2 (Certara Corporation, Mountain View, CA, USA). The Cmax and Tmax were determined from visual inspection of the concentration time data. The AUC0_∞ was estimated using the linear trapezoidal method from 0 time point to last time point (0-tlast) and extrapolation from last time point to infinity based on the observed concentration at the last time point divided by the terminal elimination rate constant (k). The t1/2, CL/F and Vd/F were calculated using Equation (10), Equation (11) and Equation (12), respectively. (10) t1/2=0.693/k (11) CL=Dose/AUC0_∞ (12) Vd=Dose /k×AUC0_∞
# CD-1 mice = test system: CD-1 mice; design: method as in PMID 30612055; conditions: up to 9.4 mg/kg intravenously three times weekly; cited from earlier work
# [5] = female, mouse, CD-1 mice, single IP 5 mg/kg, plasma
smiles,measurement,setting,value
"O=c1c(O)ccccc1-c1ccc2ccccc2c1 [MO-OH-Nap, MO-OH-Nap tropolone]",drug remaining,"[1]; PBS pH 7.4, 120 min",> 80%
same,drug remaining,"[1]; SGF pH 1.2, 120 min",> 80%
same,drug remaining,"[1]; SIF pH 6.8, 120 min",> 80%
same,metabolic depletion,"[2]; NADPH, 60 min",< 15%
same,parent drug remaining,[2]; all time points to 60 min,> 95%
same,metabolic depletion,"[3]; NADPH, 60 min",< 15%
same,parent drug remaining,[3]; all time points to 60 min,> 95%
same,detectability in plasma,[4]; 48 h after single IP 5 mg/kg,detectable
same,Cmax,"[4]; CD-1 mice, single IP 5 mg/kg, plasma",3040.9 ng/mL
same,Vd/F,"[4]; CD-1 mice, single IP 5 mg/kg","43,727.1 mL/kg"
same,AUC,"[4]; female, CD-1, mouse, plasma, ip, CD-1 mice, single IP 5 mg/kg, plasma, read-out: AUC0_last",2750 ng·h/mL
same,AUC,"[4]; female, CD-1, mouse, plasma, ip, CD-1 mice, single IP 5 mg/kg, plasma, read-out: AUC0_∞",2860 ng·h/mL
same,Cmax,"[4]; female, CD-1, mouse, plasma, ip, CD-1 mice, single IP 5 mg/kg, plasma, read-out: Cmax",3040 ng/mL
same,Vd/F,"[4]; female, CD-1, mouse, plasma, ip, CD-1 mice, single IP 5 mg/kg, read-out: Vd/F",43.3 L/kg
same,CL/F,"[4]; female, mouse, plasma, CD-1 mice, single IP 5 mg/kg",29.8 mL/min/kg
same,Tmax,[4]; [5],0.3 h
same,half-life,[4]; [5],17.7 h
same,"tolerability (blood counts, renal and hepatic functions, body weight)",CD-1 mice,well-tolerated
